pIC50: −log10 of the molar value.
These compounds were tested against human RAF1 (Homo sapiens, UniProt P04049) (assay: Protein kinase assay (33P-ATP filter binding), human RAF1, 10-dose IC50). Details: MEK1 (K97R) substrate 3 micromolar, ATP 10 micromolar, read-out: RAF-1 IC50.
Sequence of human RAF1 (P04049 whole entry): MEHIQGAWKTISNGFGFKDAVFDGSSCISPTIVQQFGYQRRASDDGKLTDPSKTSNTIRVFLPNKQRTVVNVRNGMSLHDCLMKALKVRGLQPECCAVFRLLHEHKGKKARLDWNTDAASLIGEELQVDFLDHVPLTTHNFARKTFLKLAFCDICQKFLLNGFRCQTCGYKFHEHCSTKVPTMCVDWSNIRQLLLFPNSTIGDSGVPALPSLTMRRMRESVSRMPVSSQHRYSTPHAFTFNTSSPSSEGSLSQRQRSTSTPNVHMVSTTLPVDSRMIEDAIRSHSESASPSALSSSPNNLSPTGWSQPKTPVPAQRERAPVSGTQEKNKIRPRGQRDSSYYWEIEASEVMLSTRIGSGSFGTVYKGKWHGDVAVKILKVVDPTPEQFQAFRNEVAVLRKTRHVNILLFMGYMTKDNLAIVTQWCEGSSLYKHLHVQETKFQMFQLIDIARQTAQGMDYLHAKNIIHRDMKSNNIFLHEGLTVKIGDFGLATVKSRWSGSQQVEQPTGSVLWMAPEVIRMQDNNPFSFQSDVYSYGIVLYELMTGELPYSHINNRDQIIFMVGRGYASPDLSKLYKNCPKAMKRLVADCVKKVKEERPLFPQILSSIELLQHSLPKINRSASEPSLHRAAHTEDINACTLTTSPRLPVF
Assay type: biochemical
Procedure, shortened: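 Radiometric filter-binding format: 10 µM ATP, 3 µM MEK1 (K97R) as substrate for human RAF1, 2 hr at room temperature in 20 mM HEPES pH 7.5 with 10 mM MgCl2. Compounds were dispensed acoustically from DMSO. IC50 came from percent kinase activity relative to vehicle over a 10-dose series.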
Work on `Cc1ccc(NC(=O)N2CC[C@@H](OC(F)(F)F)C2)cc1-c1cc(OCC(C)(C)O)nc(N2CCOCC2)c1` [Example 149, (3R)-N-[3-[2-(2-hydroxy-2-methylpropoxy)-6-(morpholin-4-yl)pyridin-4-yl]-4-methylphenyl]-3-(trifluoromethoxy)pyrrolidine-1-carboxamide] yielded a pIC50 of over 8.00. `Cc1ccc(NC(=O)N2CC[C@H](OC(F)(F)F)C2)cc1-c1cc(OC[C@H](C)O)nc(N2CCOCC2)c1` [Example 150, (3S)-N-(3-[2-[(2S)-2-hydroxypropoxy]-6-(morpholin-4-yl)pyridin-4-yl]-4-methylphenyl)-3-(trifluoromethoxy)pyrrolidine-- carboxamide] was tested, and the pIC50 was over 8.00. `Cc1ccc(NC(=O)N2CC[C@H](OC(F)(F)F)C2)cc1-c1cc(O[C@@H](C)CO)nc(N2CCOCC2)c1` [Example 151, (3S)-N-[3-(2-[[(2S)-1-hydroxypropan-2-yl]oxy]-6-(morpholin-4-yl)pyridin-4-yl)-4-methylphenyl]-3-(trifluoromethoxy)pyrrolidine-1-carboxamide] was tested, and the pIC50 was over 8.00. With `Cc1ccc(NC(=O)N2CC[C@H](OC(F)(F)F)C2)cc1-c1cc(OCC(C)(C)O)nc(N2CCOCC2)c1` [Example 154, (3S)-N-[3-[2-(2-hydroxy-2-methylpropoxy)-6-(morpholin-4-yl)pyridin-4-yl]-4-methylphenyl]-3-(trifluoromethoxy)pyrrolidine-1-carboxamide] the pIC50 was over 8.00. With `Cc1ccc(NC(=O)N2CC[C@H](OC(F)(F)F)C2)cc1-c1cc(OC[C@@H](C)O)nc(N2CCOCC2)c1` [Example 155, (3S)-N-(3-[2-[(2R)-2-hydroxypropoxy]-6-(morpholin-4-yl)pyridin-4-yl]-4-methylphenyl)-3-(trifluoromethoxy)pyrrolidine-1-carboxamide] the pIC50 was over 8.00. `Cc1ccc(NC(=O)N(C)c2cnn(C(F)(F)F)c2)cc1-c1cc(OC[C@@H](C)O)nc(N2CCOCC2)c1` [Example 156, 1-(3-[2-[(2R)-2-hydroxypropoxy]-6-(morpholin-4-yl)pyridin-4-yl]-4-methylphenyl)-3-methyl-3-[1-(trifluoromethyl)pyrazol-4-yl]urea] was tested, and the pIC50 was over 8.00. For `Cc1ccc(NC(=O)N2CCC3(C2)CC(F)(F)C3)cc1-c1cc(OCCO)nc(N2CCOCC2)c1` [Example 167, 2,2-difluoro-N-(3-(2-(2-hydroxyethoxy)-6-morpholinopyridin-4-yl)-4-methylphenyl)-6-azaspiro[3.4]octane-6-carboxamide], the pIC50 was over 8.00. Compound `Cc1cc(F)c(NC(=O)N2CCS[C@H](C(F)(F)F)C2)cc1-c1cc(OCCO)nc(N2CCOCC2)c1` [Example 168, (S)-N-(2-fluoro-5-(2-(2-hydroxyethoxy)-6-morpholinopyridin-4-yl)-4-methylphenyl)-2-(trifluoromethyl)thiomorpholine-4-carboxamide] has a pIC50 of over 8.00. In the case of `Cc1cc(F)c(NC(=O)N2CCS[C@@H](C(F)(F)F)C2)cc1-c1cc(OCCO)nc(N2CCOCC2)c1` [Example 169, (R)-N-(2-fluoro-5-(2-(2-hydroxyethoxy)-6-morpholinopyridin-4-yl)-4-methylphenyl)-2-(trifluoromethyl)thiomorpholine-4-carboxamide], the pIC50 was over 8.00. `Cc1ccc(NC(=O)N2CC[C@H](OC(F)(F)F)C2)cc1-c1cc(OC(C)(C)CO)nc(N2CCOCC2)c1` [Example 170, (3S)-N-(3-[2-[(1-hydroxy-2-methylpropan-2-yl)oxy]-6-(morpholin-4-yl)pyridin-4-yl]-4-methylphenyl)-3-(trifluoromethoxy)pyrrolidine-1-carboxamide] gave a pIC50 of over 8.00. Work on `Cc1ccc(NC(=O)N2CC=C(C(F)(F)F)C2)cc1-c1cc(O[C@H](C)[C@@H](C)O)nc(N2CCOCC2)c1` [Example 171, N-(3-(2-(((2R,3R)-3-hydroxybutan-2-yl)oxy)-6-morpholinopyridin-4-yl)-4-methylphenyl)-3-(trifluoromethyl)-2,5-dihydro-1H-pyrrole-1-carboxamide] yielded a pIC50 of over 8.00.

Source: patent publication US20230081390A1, “INHIBITORS OF RAF KINASES” (Kinnate Biopharma Inc., priority 2019, published 2023)
